# Measured values as given in patent US9393288B2, “Methods of treating diseases associated with PPARγ” (The University of Vermont and State Agricultural College, priority 2012, dated 2016).
# Key:
# [1] = system: parenchymal arterioles (PA); assay: Pressurized arteriograph: vascular reactivity and structure of PA from relaxin-treated NP Sprague Dawley rats; format: in vivo, rat; details: for Kind of structural remodeling of PA: normotensive NP rats
# From the text: (§1) Animals and Treatment Groups: All procedures were approved by the Institutional Animal Care and Use Committee and conducted in accordance with the National Institutes of Health Guide for the Care and Use of Laboratory Animals. Female virgin NP Sprague Dawley rats (250-300 g, 14-16 weeks, Charles River, Canada) were used for all experiments and housed in the University of Vermont Animal Care Facility. Animals were randomly selected and grouped as untreated (N=4), treated with recombinant human relaxin-2 (relaxin, 4 μg/hr; N=14), relaxin plus a specific PPARγ inhibitor GW9662 (10 mg/kg daily in food; N=8), or vehicle (20 mM sodium acetate; N=14) for 10 days through osmotic minipumps (Alzet 2ML2, Durect Corp., Cupertino, Calif., USA). GW9662 treatment was started 1 day before and for the duration of relaxin treatment to ensure PPARγ was inhibited. Animals were anesthetized with 3% isoflurane and minipumps implanted subcutaneously in the back of the neck. All animals received post-surgical analgesic (buprenorphine, 50 μg/kg, s.c.). Relaxin infusion was continuous for 10 days until animals were euthanized for vessel experiments and tissue collection. The minipumps used were capable of delivering relaxin for 14 days and thus tissue collection was within this duration.
# Vessel Preparation and Pressurized Arteriograph System: After collecting trunk blood, the brain was quickly removed and placed in cold physiological salt solution (PSS). In the first set of experiments, PA between the M1 and M2 region of the MCA territory and the MCA from the same animals were carefully isolated from vehicle- or relaxin-treated animals and mounted on glass cannulas in a dual-chambered arteriograph such that one PA and one MCA from each animal were studied simultaneously. PA were identified as branches off the MCA that penetrated into the brain tissue, as previously described (25). In the second set of experiments, PA from the same brain region as above were dissected from relaxin+GW9662-treated animal and compared to PA from vehicle- and relaxin-treated animals. MCA were not studied in this second set of animals because there was no effect of relaxin on that segment of the vasculature. The proximal cannulas were connected to an in-line pressure transducer and a servo-null pressure control system (Living Systems Instrumentation, Burlington, Vt., USA) that allowed intravascular pressure to be maintained at a set pressure or changed at a variable rate. The distal cannulas were closed during the experiment to avoid flow-mediated responses. Temperature and pH were continuously measured and maintained at 37.0±0.5° C. and 7.40±0.05, respectively. Measurements of inner diameter (ID) and wall thickness (WT) were made via video microscopy (Living Systems Instrumentation).
# Vascular Reactivity and Structural Characteristics in PA and MCA: For the first set of experiments, PA and MCA were equilibrated for 1 hour at 25 mmHg, after which myogenic activity was determined by stepwise increases in pressure from 40 to 100 mmHg for PA or 50 to 175 mmHg for MCA. ID and WT were measured at each pressure once stable. Changes in ID and WT were measured in PA only in response to small- (SKCa) and intermediate- (IKCa) conductance calcium-activated potassium channels blockers, apamin (3×10^−7 M) and TRAM-34 (10^−6 M), respectively. PA are unique in that the contribution of endothelium-derived hyperpolarizing factors (EDHF) to tone is greater than most vessels Cipolla et al. (2009) Stroke 40, 1451-1457. Thus, inhibition of SKCa/IKCa channels, a critical component in the EDHF pathway, causes constriction in PA Cipolla et al. (2009) Stroke 40, 1451-1457. We therefore assessed the effect of relaxin on constriction of PA in response to SKCa/IKCa channel inhibition in order to assess this unique pathway. […]
# [2] = system: PPARγ target genes; assay: PPARγ target gene expression (real-time qPCR) in adipose tissue, pial arteries and PA, NP Sprague Dawley rats; format: in vivo, rat
# From the text: as §1
# Determination of RXFP1 and PPARγ Target Gene Expression: MCA and PA from 4 untreated rats were collected to determine expression level of RXFP1, the primary relaxin receptor, using real-time qPCR methods. We also collected adipose tissue, pial arteries, and PA from vehicle, relaxin and relaxin+GW9662 groups (n=6 for each group) for determination of PPARγ target gene expression. All collected samples were stored in RNase inhibitor (1 unit/μl, RiboLock, Fermentas, Glen Burnie, Md., USA) at −80° C. for comparing expression of fatty acid translocase (FAT)/CD36 and liver X receptors-α (LXRα) for adipose tissue, and plasminogen activator inhibitor-1 (PAI-1) for vasculature. Standard techniques for real-time qPCR were performed by the Vermont Cancer Center DNA analysis facility at the University of Vermont, as described previously Cipolla et al. (2009) Stroke 40, 1451-1457. Briefly, RNA was extracted from tissues and concentration and integrity was determined by a NanoDrop ND-1000 Spectrophotometer (Wilmington, Del.) and an Agilent 2100 Bioanalyzer (Santa Clara, Calif., USA), respectively. Samples with low RNA quality were excluded. cDNA was then made by a SuperScript III Kit (Invitrogen, Carlsbad, Calif., USA). Real-time qPCR was set up as follows: 10 μL Universal PCR Master Mix (Applied Biosystems, Foster City, Calif., USA), 1 μL Assay on Demand (Applied Biosystems), 8 μL water, and 1 μL cDNA. β2-microglobulin (B2M, housekeeping control) and target genes were assessed using Assays on Demand from Applied Biosystems. […] Primers were designed across an exon-exon junction to avoid detecting genomic DNA. Thus, no DNase treatment of samples was necessary. All samples were run in duplicates using a 7900HT Sequence Detection System (Applied Biosystems). […]
# Data Calculations and Statistical Analysis: Percent tone was calculated as percent decrease in ID from the passive diameter at each intravascular pressure: [1−(IDactive/IDpassive)]×100%. Outer diameter (OD) was calculated from measured ID and WT: ID+2WT. Cross-sectional area (CSA) of the wall was calculated as: [(OD/2)2−(ID/2)2]×π. Data from qPCR study were analyzed using the −2^ΔΔCT method, as described previously Livak et al. (2001) Methods 25, 402-408. […]
# [3] = relaxin- vs vehicle-treated NP rats
# [4] = relaxin- vs vehicle-treated NP rats, all pressures studied
substance,measurement,setting,value
relaxin,Kind of structural remodeling of PA,[1],hypertrophic outward remodeling
same,Kind of structural remodeling of PA,[1]; listed as Relaxin,outward hypertrophic remodeling
same,Distensibility of PA,[1]; normotensive rats,without affecting
same,CSA of PA wall,[1]; [3],increased
same,OD of PA,[1]; [3],increased
same,Passive WT of PA,[1]; [3],increased
same,"Response of PA to SKCa/IKCa inhibition (apamin, TRAM-34)",[1]; [3],no difference
same,Tone of PA,[1]; [3],did not significantly affect
same,Active diameter of PA,[1]; [4],increase
same,Passive ID of PA,[1]; [4],significantly increased
same,Gene expression of CD36 in adipose tissue,"[2]; relaxin vs vehicle, NP rats",decreased
same,PAI-1 expression in pial arteries,"[2]; relaxin vs vehicle, NP rats",did not significantly change
same,PAI-1 expression in PA,"[2]; relaxin vs vehicle, NP rats, low sample numbers",did not significantly change
same,Gene expression of LXR-α in adipose tissue,"[2]; similar trend as CD36 (decrease with relaxin, normalized by GW9662)",not statistically significant
